Experimental data published in patent US12630536B2, “Cyanotriazine derivative, preparation method therefor, and application thereof” (Chengdu Fanxi Biopharma Co., LTD., priority 2020, dated 2026).

Assays:
[1] = tested on: TR alpha-UAS-bla HEK 293T Cells; experiment: TR cell-based agonist detection, β-lactamase reporter (LiveBLAzer FRET B/G), TR alpha
Method: (§1) A method for testing a THR-α/β activation activity of a compound by an in-vitro cell level was as follows.
(§2) Compounds were transferred to a 384-well plate by an ECHO liquid workstation, and each compound was diluted by 3 times with 10 gradient concentrations, which was in triplicate. 1.5×10^4 DMEM-cultured cells (TR beta-UAS-bla HEK 293T Cells) or 1.0×10^4 TR alpha-UAS-bla HEK 293T Cells were placed in the 384-well plate. HEK 293T-TR beta was incubated in an incubator for 16 hours, and HEK 293T-TR alpha was incubated in an incubator for 24 hours. A LiveBLAzer™-FRET B/G (CCF4-AM) substrate was added into the cell plate to detect expression of β-lactamase in cells, and under excitation of 409 nm, a product produced fluorescence with a wavelength of 447 nm. When the β-lactamase was not expressed, under excitation of 409 nm, fluorescence with a wavelength of 520 nm was directly produced through FRET. Combination between the compound and the protein was determined by detecting a ratio of the two kinds of fluorescence (blue/green, 460 nm/530 nm), thus calculating EC50 of the compound. […] Calculation of a factor Z (greater than 0.5) would be used for monitoring a stability of each experiment.

[2] = tested on: TR beta-UAS-bla HEK 293T Cells; experiment: TR cell-based agonist detection, β-lactamase reporter (LiveBLAzer FRET B/G), TR beta
Method: as §1, §2

Cn1cnc2ccc(Oc3c(Br)cc(-n4nc(C#N)c(=O)[nH]c4=O)cc3Br)cc21 [Compound 1, 2-(3,5-dibromo-4-((1-methyl-1H-benzo[d]imidazol-6-yl)oxy)phenyl)-3,5-dioxo-2,3,4,5-tetra hydro-1,2,4-triazine-6-carbonitrile]
Emax ([1]; Homo sapiens, HEK-293T, 24 h, TR_cell-based agonist, TR_α, read-out: Maximum activity ratio): 205%
EC50 ([1]; Homo sapiens, Detection of TR_cell-based agonist, HEK 293T-TR alpha, 24 hours, read-out: TR_α_EC50): 4.32 µM
Test cpd/T3 (maximum ratio) ([1]; TR_cell-based agonist, TR_α, maximum relative to T3): 93.2%
Emax ([2]; Homo sapiens, HEK-293T, 16 h, TR_cell-based agonist, TR_β, read-out: Maximum activity ratio (A460/A530)): 41.1%
EC50 ([2]; Homo sapiens, Detection of TR_cell-based agonist, HEK 293T-TR beta, 16 hours, read-out: TR_β_EC50): 0.577 µM
Measurement of cpd/T3 (maximum ratio) ([2]; TR_cell-based agonist, TR_β, maximum relative to T3): 7.5%
α/β ([2]; TR_cell-based agonist, ratio TR_α EC50 / TR_β EC50): 7.49
